Laboratory results taken from patent publication US20050004092A1, “Penem derivatives and antimicrobial agent containing the same” (DAIICHI SUNTORY PHARMA CO., LTD., priority 1995, published 2005).
Values after ≈ are worked out from the molar mass of the structure shown.

Assays:
Test in all cases: antibacterial activity (MIC), standard in vitro dilution test
[1] = system: MRSA 31 high-resist. (IPM resist.); type: cell-based, Staphylococcus aureus; details: test bacterium strain 10^5 cfu/ml; for MIC: Staphylococcus aureus, MRSA, read-out: MIC, MRSA 31 high-resist. (IPM resist.)
Source text: (§1) With respect to certain compounds (I) of the present invention, their general antibacterial activities and their antibacterial activities (MIC) against various methicillin-resistant strains of Staphylococcus aureus (methicillin-resistant Staphylococcus aureus: MRSA) were investigated. The results will be shown next.
(§2) Of the investigations, the general antibacterial activities were investigated by a standard in vitro dilution test.
(§3) As test bacteria, Staphylococcus aureus 209P JC-1, Escherichia coli NIHJ JC-2 and MRSAs were used.

[2] = system: MRSA 33 high-resist. (IPM resist.); type: cell-based, Staphylococcus aureus; details: test bacterium strain 10^5 cfu/ml; for MIC: Staphylococcus aureus, MRSA, read-out: MIC, MRSA 33 high-resist. (IPM resist.)
Source text: as §1, §2, §3

[3] = system: Escherichia coli NIHJ JC-2 strain; type: cell-based; details: for MIC: Escherichia coli, NIHJJC2, test bacterium strain 10^5 cfu/ml, read-out: MIC, Escherichia coli NIHJ JC-2 strain; for MIC, Escherichia coli NIHJ JC-2 strain: test bacterium strain 10^5 cfu/ml
Source text: as §1, §2, §3

[4] = system: Staphylococcus aureus 209P JC-1 strain; type: cell-based; details: test bacterium strain 10^5 cfu/ml; for MIC: Staphylococcus aureus, 209P, read-out: MIC, Staphylococcus aureus 209P JC-1 strain
Source text: as §1, §2, §3

CC[C@H](O)[C@@H]1C(=O)N2C(C(=O)O)=C(Sc3ccccc3)S[C@H]12 [Ex. 151, (5R,6R)-6-((S)-1-hydroxypropyl)-2-phenylthiopenem-3-carboxylic acid]
MIC [1]: 6.25 mg/L (≈ 18.5 µM) | MIC [2]: 6.25 mg/L (≈ 18.5 µM) | MIC [3]: 25 mg/L (≈ 74.1 µM) | MIC [4]: 0.1 mg/L (≈ 0.296 µM)

CC[C@H](O)[C@@H]1C(=O)N2C(C(=O)O)=C(Sc3nc(-c4ccccc4)cs3)S[C@H]12 [Ex. 152, (5R,6R)-6-((S)-1-hydroxypropyl)-2-(4-phenylthiazol-2-yl)thiopenem-3-carboxylic acid]
MIC [1]: 3.13 mg/L (≈ 7.44 µM) | MIC [2]: 3.13 mg/L (≈ 7.44 µM) | MIC [3]: 50 mg/L (≈ 119 µM) | MIC [4]: 0.05 mg/L (≈ 0.119 µM)

CC[C@H](O)[C@@H]1C(=O)N2C(C(=O)O)=C(S[C@H]3CCN(c4ccncc4)C3)S[C@H]12 [Ex. 203]
MIC [1]: 3.13 mg/L (≈ 7.68 µM) | MIC [2]: 3.13 mg/L (≈ 7.68 µM) | MIC [3]: 0.78 mg/L (≈ 1.91 µM) | MIC [4]: 0.05 mg/L (≈ 0.123 µM)

CC[C@H](O)[C@@H]1C(=O)N2C(C(=O)O)=C(S[C@H]3CCN(c4ccccn4)C3)S[C@H]12 [Ex. 204]
MIC [1]: 3.13 mg/L (≈ 7.68 µM) | MIC [2]: 3.13 mg/L (≈ 7.68 µM) | MIC [3]: 6.25 mg/L (≈ 15.3 µM) | MIC [4]: 0.1 mg/L (≈ 0.245 µM)

CC[C@H](O)[C@@H]1C(=O)N2C(C(=O)O)=C(SCc3nc4ccccc4[nH]3)SC12 (some centres unmarked) [Ex. 205]
MIC [1]: 3.13 mg/L (≈ 8 µM) | MIC [2]: 3.13 mg/L (≈ 8 µM) | MIC [3]: 3.13 mg/L (≈ 8 µM) | MIC [4]: 0.1 mg/L (≈ 0.255 µM)

CC[C@H](O)[C@@H]1C(=O)N2C(C(=O)O)=C(S[C@H]3CCN(CC(=O)c4ccc5c(c4)OCO5)C3)S[C@H]12 [Ex. 207]
MIC [1]: 6.25 mg/L (≈ 12.7 µM) | MIC [2]: 6.25 mg/L (≈ 12.7 µM) | MIC [3]: 0.39 mg/L (≈ 0.792 µM) | MIC [4]: 0.1 mg/L (≈ 0.203 µM)

CC[C@H](O)[C@@H]1C(=O)N2C(C(=O)O)=C(S[C@H]3CCN(c4ncccn4)C3)S[C@H]12 [Ex. 209]
MIC [1]: 6.25 mg/L (≈ 15.3 µM) | MIC [2]: 6.25 mg/L (≈ 15.3 µM) | MIC [3]: 25 mg/L (≈ 61.2 µM) | MIC [4]: 0.39 mg/L (≈ 0.955 µM)

CC[C@H](O)[C@@H]1C(=O)N2C(C(=O)O)=C(S[C@H]3CCN(CCOc4ccccc4)C3)S[C@H]12 [Ex. 210]
MIC [1]: 6.25 mg/L (≈ 13.9 µM) | MIC [2]: 6.25 mg/L (≈ 13.9 µM) | MIC [3]: 12.5 mg/L (≈ 27.7 µM) | MIC [4]: 0.1 mg/L (≈ 0.222 µM)

CC[C@H](O)[C@@H]1C(=O)N2C(C(=O)O)=C(S[C@H]3CCN(C4Cc5ccccc5C4)C3)S[C@H]12 [Ex. 214]
MIC [1]: 6.25 mg/L (≈ 14 µM) | MIC [2]: 3.13 mg/L (≈ 7.01 µM) | MIC [3]: 6.25 mg/L (≈ 14 µM) | MIC [4]: 0.1 mg/L (≈ 0.224 µM)

CC[C@H](O)[C@@H]1C(=O)N2C(C(=O)O)=C(S[C@H]3CCN(CCCC(=O)c4ccccc4)C3)S[C@H]12 [Ex. 215]
MIC [1]: 6.25 mg/L (≈ 13.1 µM) | MIC [2]: 6.25 mg/L (≈ 13.1 µM) | MIC [3]: 3.13 mg/L (≈ 6.57 µM) | MIC [4]: 0.1 mg/L (≈ 0.21 µM)

CC[C@H](O)[C@@H]1C(=O)N2C(C(=O)O)=C(SC3CCN(C(=N)NC(=O)c4ccccc4)C3)S[C@H]12 (some centres unmarked) [Ex. 218]
MIC [1]: 6.25 mg/L (≈ 13.1 µM) | MIC [2]: 6.25 mg/L (≈ 13.1 µM) | MIC [3]: 25 mg/L (≈ 52.5 µM) | MIC [4]: 0.2 mg/L (≈ 0.42 µM)

CC[C@H](O)[C@@H]1C(=O)N2C(C(=O)O)=C(SCc3ccncc3)S[C@H]12 [Ex. 224]
MIC [1]: 3.13 mg/L (≈ 8.88 µM) | MIC [2]: 3.13 mg/L (≈ 8.88 µM) | MIC [3]: 3.13 mg/L (≈ 8.88 µM) | MIC [4]: 0.2 mg/L (≈ 0.567 µM)

CC[C@H](O)[C@@H]1C(=O)N2C(C(=O)O)=C(SC3Cc4ccccc4C3)S[C@H]12 [Ex. 225]
MIC [1]: 1.56 mg/L (≈ 4.13 µM) | MIC [2]: 1.56 mg/L (≈ 4.13 µM) | MIC [3]: 12.5 mg/L (≈ 33.1 µM) | MIC [4]: 0.05 mg/L (≈ 0.132 µM)

CC[C@H](O)[C@@H]1C(=O)N2C(C(=O)O)=C(SC3CCN(CC(=O)c4ccccc4C)C3)S[C@H]12 (some centres unmarked) [Ex. 226]
MIC [1]: 6.25 mg/L (≈ 13.5 µM) | MIC [2]: 6.25 mg/L (≈ 13.5 µM) | MIC [3]: 0.39 mg/L (≈ 0.843 µM) | MIC [4]: 0.2 mg/L (≈ 0.432 µM)

CC[C@H](O)[C@@H]1C(=O)N2C(C(=O)O)=C(SC3CCN(C4CCCC4)C3)S[C@H]12 (some centres unmarked) [Ex. 227]
MIC [1]: 6.25 mg/L (≈ 15.7 µM) | MIC [2]: 6.25 mg/L (≈ 15.7 µM) | MIC [3]: 0.78 mg/L (≈ 1.96 µM) | MIC [4]: 0.1 mg/L (≈ 0.251 µM)

CC[C@H](O)[C@@H]1C(=O)N2C(C(=O)O)=C(SC3CCN(C/C=C/c4ccccc4)C3)S[C@H]12 (some centres unmarked) [Ex. 228]
MIC [1]: 3.13 mg/L (≈ 7.01 µM) | MIC [2]: 3.13 mg/L (≈ 7.01 µM) | MIC [3]: 12.5 mg/L (≈ 28 µM) | MIC [4]: 0.05 mg/L (≈ 0.112 µM)

CC[C@H](O)[C@@H]1C(=O)N2C(C(=O)O)=C(S[C@H]3CCN(c4nccs4)C3)S[C@H]12 [Ex. 229]
MIC [1]: 3.13 mg/L (≈ 7.57 µM) | MIC [2]: 3.13 mg/L (≈ 7.57 µM) | MIC [3]: 12.5 mg/L (≈ 30.2 µM) | MIC [4]: 0.1 mg/L (≈ 0.242 µM)

CC[C@H](O)[C@@H]1C(=O)N2C(C(=O)O)=C(S[C@H]3CCN(CC4CC4)C3)S[C@H]12 [Ex. 230]
MIC [1]: 6.25 mg/L (≈ 16.3 µM) | MIC [2]: 6.25 mg/L (≈ 16.3 µM) | MIC [3]: 0.78 mg/L (≈ 2.03 µM) | MIC [4]: 0.2 mg/L (≈ 0.52 µM)

CC[C@H](O)[C@@H]1C(=O)N2C(C(=O)O)=C(SC3CCc4cccnc43)S[C@H]12 (some centres unmarked) [Ex. 231]
MIC, MRSA 31 high-resist. (IPM resist.) [1]: 1.56 mg/L (≈ 4.12 µM) | MIC, MRSA 33 high-resist. (IPM resist.) [2]: 1.56 mg/L (≈ 4.12 µM) | MIC, Escherichia coli NIHJ JC-2 strain [3]: 3.13 mg/L (≈ 8.27 µM) | MIC [4]: 0.1 mg/L (≈ 0.264 µM)

CC[C@H](O)[C@@H]1C(=O)N2C(C(=O)O)=C(SC3CCc4cccnc43)S[C@H]12 (some centres unmarked) [Ex. 232]
MIC, MRSA 31 high-resist. (IPM resist.) [1]: 3.13 mg/L (≈ 8.27 µM) | MIC, MRSA 33 high-resist. (IPM resist.) [2]: 3.13 mg/L (≈ 8.27 µM) | MIC, Escherichia coli NIHJ JC-2 strain [3]: 12.5 mg/L (≈ 33 µM) | MIC, Staphylococcus aureus 209P JC-1 strain [4]: 0.05 mg/L (≈ 0.132 µM)

CC[C@H](O)[C@@H]1C(=O)N2C(C(=O)O)=C(SC3CCN(C4CC4)C3)S[C@H]12 (some centres unmarked) [Ex. 235]
MIC [1]: 6.25 mg/L (≈ 16.9 µM) | MIC [2]: 6.25 mg/L (≈ 16.9 µM) | MIC [3]: 0.78 mg/L (≈ 2.11 µM) | MIC [4]: 0.1 mg/L (≈ 0.27 µM)

CC[C@H](O)[C@@H]1C(=O)N2C(C(=O)O)=C(SCc3ccc(Cl)c(Cl)c3)S[C@H]12 [Ex. 236]
MIC [1]: 1.56 mg/L (≈ 3.71 µM) | MIC [2]: 1.56 mg/L (≈ 3.71 µM) | MIC [3]: 50 mg/L (≈ 119 µM) | MIC [4]: 0.1 mg/L (≈ 0.238 µM)

CC[C@H](O)[C@@H]1C(=O)N2C(C(=O)O)=C(SCc3ccc(C#N)cc3)S[C@H]12 [Ex. 239]
MIC [1]: 0.78 mg/L (≈ 2.07 µM) | MIC [2]: 1.56 mg/L (≈ 4.14 µM) | MIC [3]: 12.5 mg/L (≈ 33.2 µM) | MIC [4]: 0.1 mg/L (≈ 0.266 µM)

CC[C@H](O)[C@@H]1C(=O)N2C(C(=O)O)=C(S[C@H]3CCN(C(=N)Nc4ccccc4)C3)S[C@H]12 [Ex. 243]
MIC [1]: 6.25 mg/L (≈ 13.9 µM) | MIC [2]: 6.25 mg/L (≈ 13.9 µM) | MIC [3]: 1.56 mg/L (≈ 3.48 µM) | MIC [4]: 0.2 mg/L (≈ 0.446 µM)

CCC(=N)N1CC[C@H](SC2=C(C(=O)O)N3C(=O)[C@@H]([C@@H](O)CC)[C@H]3S2)C1 [Ex. 250]
MIC [1]: 6.25 mg/L (≈ 16.2 µM) | MIC [2]: 6.25 mg/L (≈ 16.2 µM) | MIC [3]: 1.56 mg/L (≈ 4.05 µM) | MIC [4]: 0.2 mg/L (≈ 0.519 µM)

CC[C@H](O)[C@@H]1C(=O)N2C(C(=O)O)=C(S[C@H]3CCN(C(=N)CF)C3)S[C@H]12 [Ex. 253]
MIC [1]: 6.25 mg/L (≈ 16 µM) | MIC [2]: 6.25 mg/L (≈ 16 µM) | MIC [3]: 0.78 mg/L (≈ 2 µM) | MIC [4]: 0.1 mg/L (≈ 0.257 µM)

CC[C@H](O)[C@@H]1C(=O)N2C(C(=O)O)=C(SC3CN(C=N)C3)S[C@H]12 [Ex. 254]
MIC [1]: 6.25 mg/L (≈ 18.2 µM) | MIC [2]: 6.25 mg/L (≈ 18.2 µM) | MIC [3]: 0.78 mg/L (≈ 2.27 µM) | MIC [4]: 0.1 mg/L (≈ 0.291 µM)

CC[C@H](O)[C@@H]1C(=O)N2C(C(=O)O)=C(SC3CN(C(C)=N)C3)S[C@H]12 [Ex. 255]
MIC [1]: 3.13 mg/L (≈ 8.76 µM) | MIC [2]: 3.13 mg/L (≈ 8.76 µM) | MIC [3]: 0.78 mg/L (≈ 2.18 µM) | MIC [4]: 0.1 mg/L (≈ 0.28 µM)

CC[C@H](O)[C@@H]1C(=O)N2C(C(=O)O)=C(S[C@H]3CCN(c4ccc(NC(C)=N)cc4)C3)S[C@H]12 [Ex. 257]
MIC [1]: 3.13 mg/L (≈ 6.77 µM) | MIC [2]: 1.56 mg/L (≈ 3.37 µM) | MIC [3]: 12.5 mg/L (≈ 27 µM) | MIC [4]: 0.05 mg/L (≈ 0.108 µM)
